# Measurements as given in US10294202B2, “Pyrrolidinones as herbicides” (FMC Corporation, priority 2013, dated 2019).
# Legend:
# [1] = tested on: giant foxtail; test: Test A pre-/postemergence herbicide test; assay type: in vivo, Setaria faberii
# How it was run: (§1)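 Greenhouse pot test with pre- and postemergence application of surfactant-containing solvent formulations. Postemergence plants were 2–10 cm, one- to two-leaf stage. Response scored visually after ~10 days, 0 (no effect) to 100 (complete control).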
# [2] = tested on: wheat; test: Test A pre-/postemergence herbicide test; assay type: in vivo, Triticum aestivum
# How it was run: as §1
# [3] = tested on: corn; test: Test A pre-/postemergence herbicide test; assay type: in vivo, Zea mays
# How it was run: as §1
# [4] = tested on: blackgrass; test: Test C pre-/postemergence herbicide test; assay type: in vivo, Alopecurus myosuroides
# How it was run: (§2)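 Greenhouse pots; formulation = non-phytotoxic solvent mix + surfactant. PRE onto seeds in loam:sand; POST at 1–4 leaves (2–18 cm) in peat moss/vermiculite medium. Read-out: visual % control vs untreated, day 13–15.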
# [5] = tested on: galium; test: Test C pre-/postemergence herbicide test; assay type: in vivo, Galium aparine
# How it was run: as §2
# [6] = tested on: corn; test: Test C pre-/postemergence herbicide test; assay type: in vivo, Zea mays
# How it was run: as §2
# [7] = tested on: foxtail, giant; test: Test C pre-/postemergence herbicide test; assay type: in vivo, Setaria faberii
# How it was run: as §2
# [8] = tested on: johnsongrass; test: Test C pre-/postemergence herbicide test; assay type: in vivo, Sorghum halepense
# How it was run: as §2
# [9] = tested on: ragweed; test: Test C pre-/postemergence herbicide test; assay type: in vivo, Ambrosia elatior
# How it was run: as §2
# [10] = tested on: oilseed rape; test: Test C pre-/postemergence herbicide test; assay type: in vivo, Brassica napus
# From the text: Seeds of plant species selected from blackgrass (Alopecurus myosuroides), ryegrass, Italian (Italian ryegrass, Lolium multiflorum), wheat (winter wheat, Triticum aestivum), galium (catchweed bedstraw, Galium aparine), corn (Zea mays), crabgrass, large (large crabgrass, Digitaria sanguinalis), foxtail, giant (giant foxtail, Setaria faberii), johnsongrass (Sorghum halepense), lambsquarters (Chenopodium album), morningglory (Ipomoea coccinea), nutsedge, yellow (yellow nutsedge, Cyperus esculentus), pigweed (Amaranthus retroflexus), ragweed (common ragweed, Ambrosia elatior), soybean (Glycine max), barnyardgrass (Echinochloa crus-galli), oilseed rape (Brassica napus), waterhemp (common waterhemp, Amaranthus rudis), kochia (Kochia scoparia), oat, wild (wild oat, Avena fatua), surinam grass (Brachiaria decumbens), foxtail, green (green foxtail, Setaria viridis), goosegrass (Eleusine indica), bromegrass, downy (downy bromegrass, Bromus tectorum), nightshade (eastern black nightshade, Solanum ptycanthum), cocklebur (common cocklebur, Xanthium strumarium), cupgrass, woolly (woolly cupgrass, Eriochloa villosa), bermudagrass (Cynodon dactylon), sunflower, (common oilseed sunflower, Helianthus annuus), Russian thistle (Salsola kali) and velvetleaf (Abutilon theophrasti) were planted into a blend of loam soil and sand and treated preemergence with test chemicals formulated in a non-phytotoxic solvent mixture which included a surfactant. At the same time, plants selected from these crop and weed species and also barley (winter barley, Hordeum vulgare), […]), chickweed (common chickweed, Stellaria media), deadnettle (henbit deadnettle, Lamium amplexicaule), and canarygrass (littleseed canarygrass, Phalaris minor) were planted in pots containing Redi-Earth® planting medium (Scotts Company, 14111 Scottslawn Road, Marysville, Ohio 43041) comprising spaghnum peat moss, vermiculite, wetting agent and starter nutrients and treated with postemergence applications of test chemicals formulated in the same manner. Plants ranged in height from 2 to 18 cm (1- to 4-leaf stage) for postemergence treatments. Treated plants and controls were maintained in a greenhouse for 13 to 15 days, after which time all species were compared to controls and visually evaluated. Plant response ratings, summarized in Table C, are based on a scale of 0 to 100 where 0 is no effect and 100 is complete control. A dash (-) response means no test result.
# [11] = Postemergence, 125 g ai/ha, 0 to 100 scale, 0 no effect, 100 complete control
# [12] = Postemergence, 500 g ai/ha, 0 to 100 scale (0 no effect, 100 complete control)
# [13] = Preemergence, 125 g ai/ha, visual rating on 0 to 100 scale (0 no effect, 100 complete control)
# [14] = preemergence, 500 g ai/ha, 0 to 100 scale
# [15] = Postemergence, 31 g ai/ha, scale 0 (no effect) to 100 (complete control)
# [16] = Postemergence, 62 g ai/ha, scale 0 to 100 (0 no effect, 100 complete control)
# [17] = Postemergence, 125 g ai/ha, scale 0 to 100 (0 no effect, 100 complete control)
# [18] = Postemergence, 250 g ai/ha, scale 0 to 100 (0 no effect, 100 complete control)
# [19] = Preemergence, 31 g ai/ha, scale 0 to 100, 0 is no effect and 100 is complete control
# [20] = Preemergence, 62 g ai/ha, scale 0 to 100
# [21] = Preemergence, 125 g ai/ha, scale 0 to 100 (0 no effect, 100 complete control)
compound,measurement,setting,value
O=C1NCC(c2ccc(F)c(F)c2)C1C(=O)Nc1cccc(F)c1F (racemic) [Compound 101],"Plant response rating, Foxtail, Giant",[1]; [11],80
same,"Plant response rating, Foxtail, Giant",[1]; [12],90
same,"Foxtail, Giant plant response rating",[1]; [13],90
same,"Plant response rating, Foxtail, Giant",[1]; [14],90
same,"Plant response rating, Wheat",[2]; [11],50
same,"Plant response rating, Wheat",[2]; [12],60
same,Wheat plant response rating,[2]; [13],60
same,"Plant response rating, Wheat",[2]; [14],70
same,"Plant response rating, Corn",[3]; [11],0
same,"Plant response rating, Corn",[3]; [12],50
same,Corn plant response rating,[3]; [13],0
same,"Plant response rating, Corn",[3]; [14],0
same,"Plant response rating, Blackgrass",[4]; [15],0
same,"Plant response rating, Blackgrass",[4]; [16],0
same,"Plant response rating, Blackgrass",[4]; [17],10
same,"Plant response rating, Blackgrass",[4]; [18],5
same,Blackgrass plant response rating,[4]; [19],0
same,"Plant response rating, Blackgrass",[4]; [20],50
same,"Plant response rating, Blackgrass",[4]; [21],70
same,"Plant response rating (scale of 0 to 100), Blackgrass","[4]; Preemergence, 250 g ai/ha",90
same,"Plant response rating, Galium",[5]; [15],50
same,"Plant response rating, Galium",[5]; [16],50
same,"Plant response rating, Galium",[5]; [17],30
same,"Plant response rating, Galium",[5]; [18],70
same,Galium plant response rating,[5]; [19],0
same,"Plant response rating, Galium",[5]; [20],40
same,"Plant response rating, Galium",[5]; [21],90
same,"Plant response rating (scale of 0 to 100), Galium","[5]; Preemergence, 250 g ai/ha",85
same,"Plant response rating, Corn",[6]; [15],0
same,"Plant response rating, Corn",[6]; [16],0
same,"Plant response rating, Corn",[6]; [17],0
same,"Plant response rating, Corn",[6]; [18],0
same,Corn plant response rating,[6]; [19],0
same,"Plant response rating, Corn",[6]; [20],0
same,"Plant response rating, Corn",[6]; [21],5
same,"Plant response rating (scale of 0 to 100), Corn","[6]; Preemergence, 250 g ai/ha",65
same,"Plant response rating, Foxtail, Giant",[7]; [15],0
same,"Plant response rating, Foxtail, Giant",[7]; [16],20
same,"Plant response rating, Foxtail, Giant",[7]; [17],75
same,"Plant response rating, Foxtail, Giant",[7]; [18],90
same,"Foxtail, Giant plant response rating",[7]; [19],95
same,"Plant response rating, Foxtail, Giant",[7]; [20],95
same,"Plant response rating, Foxtail, Giant",[7]; [21],98
same,"Plant response rating (scale of 0 to 100), Foxtail, Giant","[7]; Preemergence, 250 g ai/ha",98
same,"Plant response rating, Johnsongrass",[8]; [15],0
same,"Plant response rating, Johnsongrass",[8]; [16],0
same,"Plant response rating, Johnsongrass",[8]; [17],0
same,"Plant response rating, Johnsongrass",[8]; [18],0
same,Johnsongrass plant response rating,[8]; [19],0
same,"Plant response rating, Johnsongrass",[8]; [20],15
same,"Plant response rating, Johnsongrass",[8]; [21],55
same,"Plant response rating (scale of 0 to 100), Johnsongrass","[8]; Preemergence, 250 g ai/ha",75
same,"Plant response rating, Ragweed",[9]; [15],0
same,"Plant response rating, Ragweed",[9]; [16],0
same,"Plant response rating, Ragweed",[9]; [17],5
same,"Plant response rating, Ragweed",[9]; [18],45
same,Ragweed plant response rating,[9]; [19],15
same,"Plant response rating, Ragweed",[9]; [20],0
same,"Plant response rating, Ragweed",[9]; [21],5
same,"Plant response rating (scale of 0 to 100), Ragweed","[9]; Preemergence, 250 g ai/ha",5
same,"Plant response rating, Oilseed Rape",[10]; [15],5
same,"Plant response rating, Oilseed Rape",[10]; [16],10
same,"Plant response rating, Oilseed Rape",[10]; [17],50
same,"Plant response rating, Oilseed Rape",[10]; [18],35
same,Oilseed Rape plant response rating,[10]; [19],0
same,"Plant response rating, Oilseed Rape",[10]; [20],35
same,"Plant response rating, Oilseed Rape",[10]; [21],80
same,"Plant response rating (scale of 0 to 100), Oilseed Rape","[10]; Preemergence, 250 g ai/ha",80
